These results are taken from patent US20240208986A1, “PHENYL AZEPINES AS RIPK1 INHIBITORS AND METHODS OF USE THEREOF” (Merck Sharp & Dohme LLC, priority 2021, published 2024).

Structures are written as SMILES.

The target in this assay is RIPK1 (recombinant GST-RIPK1 kinase domain, residues 1-327) (Homo sapiens (Human), UniProt Q13546). The assay is described as follows: RIPK1-ADP-Glo Enzymatic Assay. It counts as biochemical. To be noted: 25 nM GST-RIPK1, 300 μM ATP, 3 μM dephosphorylated-MBP; 30 minutes pre-incubation, 150 minutes reaction; ten-point titration. The method, then: The enzymatic activity of RIPK1 is measured using an assay derived from ADP-Glo kit (™Promega), which provides a luminescent-based ADP detection system. Specifically, the ADP generated by RIPK1 kinase is proportionally detected as luminescent signals in a homogenous fashion. In this context, the assessment of the inhibitory effect of small molecules (EC50) is measured by the effectiveness of the compounds to inhibit the ATP to ADP conversion by RIPK1.
RIPK1 (recombinant GST-RIPK1 kinase domain, residues 1-327), sequence (Q13546 1-327): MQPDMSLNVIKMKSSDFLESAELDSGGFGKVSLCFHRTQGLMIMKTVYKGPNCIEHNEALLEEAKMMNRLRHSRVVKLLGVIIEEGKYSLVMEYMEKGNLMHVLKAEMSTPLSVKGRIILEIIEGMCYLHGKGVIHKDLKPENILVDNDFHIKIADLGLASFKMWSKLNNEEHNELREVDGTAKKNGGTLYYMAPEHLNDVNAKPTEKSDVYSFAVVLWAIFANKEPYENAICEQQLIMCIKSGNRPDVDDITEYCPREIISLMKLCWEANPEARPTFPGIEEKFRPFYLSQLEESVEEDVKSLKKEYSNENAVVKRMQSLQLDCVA
In this assay, the potency (EC50) of each compound was determined from a ten-point (1:3 serial dilution; top compound concentration of 100000 nM) titration curve using the following outlined procedure. To each well of a white ProxiPlus 384 well-plate, 30 nL of compound (1% DMSO in final assay volume of 3 μL) was dispensed, followed by the addition of 2 μL of 1× assay buffer (25 mM Hepes 7.3, 20 mM MgCl2, 50 mM NaCl, 1 mM DTT, 0.005% Tween20, and 0.02% BSA) containing 37.5 nM of GST-RIPK1 (recombinant GST-RIPK1 kinase domain (residues 1-327) enzyme produced from baculovirus-transfected Sf21 cells: MW=62 kDa). Plates were placed in an ambient temperature humidified chamber for a 30 minutes pre-incubation with compound. Subsequently, each reaction was initiated by the addition of 1 μL 1× assay buffer containing 900 μM ATP and 3 μM dephosphorylated-MBP substrate. The final reaction in each well of 3 μL consists of 25 nM of GST-RIPK1, 300 μM ATP, and 3 μM dephosphorylated-MBP. Kinase reactions were allowed to proceed for 150 minutes prior to adding ADP-Glo reagents per Promega's outlined kit protocol. Dose-response curves were generated by plotting percent effect (% product conversion; Y-axis) vs. Log10 compound concentrations (X-axis). EC50 values were calculated using a non-linear regression, four-parameters sigmoidal dose-response model.
A general note: In ADP-Glo the light output rises with the ADP produced.
On to `O=C(N1C[C@@H]2C[C@H]1c1ccccc1O2)C12CCC(C(F)(F)F)(CC1)C2` [Compound 1-44, [(2S,5S)-2,3-dihydro-2,5-methano-1,4-benzoxazepin-4(5H)-yl][4-(trifluoromethyl)bicyclo [2.2.1]heptan-1-yl]methanone], for which the IC50 worked out at 17 nM.

Consider `CC(C)(C(=O)N1C[C@]2(C)C[C@H]1c1ccccc1O2)C(F)F` [Compound 3-6, 3,3-difluoro-2,2-dimethyl-1-((2S,5S)-2-methyl-2,3-dihydro-2,5-methanobenzo[f][1,4]oxaze-pin-4(5H)-yl)propan-1-one], for which the IC50 amounted to 14700 nM.

For `CC(C)(C(=O)N1C[C@@H]2C[C@H]1c1ccccc1O2)C1CC1` [Compound 1-28, 2-cyclopropyl-1-[(2S,5S)-2,3-dihydro-2,5-methano-1,4-benzoxazepin-4(5H)-yl]-2-methylpropan-1-one], the IC50 is 22 nM.

Take `O=C(N1C[C@@H]2C[C@H]1c1ccccc1O2)C12CC(C(F)(F)F)(C1)C2` [Compound 1-52, [(2S,5S)-2,3-dihydro-2,5-methano-1,4-benzoxazepin-4(5H)-yl][3-(trifluoromethyl)bicyclo [1.1.1]pentan-1-yl]methanone]: the IC50 was determined as 199 nM.

On to `CC1(C)CCC1C(=O)N1C[C@@H]2C[C@H]1c1ccccc1O2` (mixture of isomers) [Compound 1-27, [(2S,5S)-2,3-dihydro-2,5-methano-1,4-benzoxazepin-4(5H)-yl]-[(R and S)-2,2-dimethylcyclobutyl] methanone], for which the IC50 amounted to 921 nM.

Regarding `CC(C)(C(=O)N1C[C@@H]2C[C@H]1c1ccc(Cl)cc1O2)C(F)F` [Compound 2-21, 1-[(2S,5S)-8-chloro-2,3-dihydro-2,5-methano-1,4-benzoxazepin-4(5H)-yl]-3,3-difluoro-2,2-dimethylpropan-1-one], the IC50 is 37 nM.

For `COC12CCC(C(=O)N3C[C@@H]4C[C@H]3c3ccccc3O4)(CC1)C2` [Compound 1-46, [(2S,5S)-2,3-dihydro-2,5-methano-1,4-benzoxazepin-4(5H)-yl](4-methoxybicyclo[2.2.1]heptan-1-yl)methanone], the IC50 was 117 nM.

Regarding `O=C(N1C[C@@H]2C[C@H]1c1ccccc1O2)C1(F)CCCC1` [Compound 1-19, [(2S,5S)-2,3-dihydro-2,5-methano-1,4-benzoxazepin-4(5H)-yl](1-fluorocyclopentyl)methanone], the IC50 worked out at 499 nM.

For the compound `CC1(C(=O)N2C[C@@H]3C[C@H]2c2cccc(F)c2O3)CCC1` [Compound 2-10, [(2S,5S)-9-fluoro-2,3-dihydro-2,5-methano-1,4-benzoxazepin-4(5H)-yl](1-methylcyclobutyl)methanone], the IC50 turned out to be 30 nM.

As to `Cc1ccc2c(c1)[C@@H]1C[C@@H](CN1C(=O)C(C)(C)C(F)F)O2` [Compound 2-3, 3,3-difluoro-2,2-dimethyl-1-[(2S,5S)-7-methyl-2,3-dihydro-2,5-methano-1,4-benzoxazepin-4(5H)-yl]propan-1-one], the IC50 is 143 nM.

As to `CC(C)(C(=O)N1C[C@@H]2C[C@H]1c1cccc(F)c1O2)C(F)F` [Compound 2-8, 3,3-difluoro-1-[(2S,5S)-9-fluoro-2,3-dihydro-2,5-methano-1,4-benzoxazepin-4(5H)-yl]-2,2-dimethylpropan-1-one], the IC50 amounted to 20 nM.

On to `CC(C(=O)N1C[C@@H]2C[C@H]1c1ccccc1O2)(C(F)(F)F)C(F)(F)F` [Compound 1-24, 1-[(2S,5S)-2,3-dihydro-2,5-methano-1,4-benzoxazepin-4(5H)-yl]-3,3,3-trifluoro-2-methyl-2-(trifluoromethyl)propan-1-one], for which the IC50 came out at 69 nM.

Regarding `CC(C)(C(=O)N1C[C@@H]2C[C@H]1c1cc(Cl)ccc1O2)C(F)F` [Compound 2-1, 1-[(2S,5S)-7-chloro-2,3-dihydro-2,5-methano-1,4-benzoxazepin-4(5H)-yl]-3,3-difluoro-2,2-dimethylpropan-1-one], the IC50 was 61 nM.

On to `CC(C)(C(=O)N1C[C@@H]2C[C@H]1c1cc(F)ccc1O2)C(F)F` [Compound 2-7, 3,3-difluoro-1-[(2S,5S)-7-fluoro-2,3-dihydro-2,5-methano-1,4-benzoxazepin-4(5H)-yl]-2,2-dimethylpropan-1-one], for which the IC50 worked out at 25 nM.

As for `O=C(N1C[C@@H]2C[C@H]1c1cccc(F)c1O2)C12CCC(CC1)C2` [Compound 2-15, (bicyclo[2.2.1]heptan-1-yl)[(2S,5S)-9-fluoro-2,3-dihydro-2,5-methano-1,4-benzoxazepin-4(5H)-yl]methanone], the IC50 was found to be 24 nM.

As for `CC1(C(=O)N2C[C@@H]3C[C@H]2c2ccccc2O3)CC1(F)F` (mixture of isomers) [Compound 1-14, [(R and S)-2,2-difluoro-1-methylcyclopropyl]-[(2S,5S)-2,3-dihydro-2,5-methano-1,4-benzoxazepin-4(5H)-yl]methanone], the IC50 is 313 nM.

Take `CC(F)(F)C(C)(C)C(=O)N1C[C@@H]2C[C@H]1c1cc(F)ccc1O2` [Compound 2-13, 3,3-difluoro-1-[(2S,5S)-7-fluoro-2,3-dihydro-2,5-methano-1,4-benzoxazepin-4(5H)-yl]-2,2-dimethylbutan-1-one]: the IC50 came to 23 nM.

`O=C(N1C[C@@H]2C[C@H]1c1ccccc1O2)C1(C(F)(F)F)CCC1` [Compound 1-16, [(2S,5S)-2,3-dihydro-2,5-methano-1,4-benzoxazepin-4(5H)-yl][1-(trifluoromethyl)cyclobutyl] methanone]: the IC50 came to 96 nM.

As for `O=C(N1C[C@@H]2C[C@H]1c1ccccc1O2)C1(C(F)F)CCC1` [Compound 1-29, [1-(difluoromethyl)cyclobutyl] [(2S,5S)-2,3-dihydro-2,5-methano-1,4-benzoxazepin-4(5H)-yl]methanone], the IC50 is 58 nM.

On to `O=C(C1CCCCC1)N1C[C@@H]2C[C@H]1c1ccccc1O2` [Compound 1-8, cyclohexyl((2S,5S)-2,3-dihydro-2,5-methanobenzo[f][1,4]oxaze-pin-4(5H)-yl)methanone], for which the IC50 was found to be 641 nM.

Turning to `O=C(C1CCN(c2ncnc3scnc23)CC1)N1C[C@@H]2C[C@H]1c1ccccc1O2` [Compound 1-37, [(2S,5S)-2,3-dihydro-2,5-methano-1,4-benzoxazepin-4(5H)-yl][1-([1,3]thiazolo[5,4-d]pyrimidin-7-yl)piperidin-4-yl]methanone], the 50% inhibitory concentration (IC50) turned out to be 124 nM.

`CC12CC(C(=O)N3C[C@@H]4C[C@H]3c3ccccc3O4)(CO1)C2` [Compound 1-42, [(2S,5S)-2,3-dihydro-2,5-methano-1,4-benzoxazepin-4(5H)-yl](1-methyl-2-oxabicyclo[2.1.1]hexan-4-yl)methanone]: the IC50 came out at 922 nM.

For the compound `N#CCC1(C(=O)N2C[C@@H]3C[C@H]2c2cccc(F)c2O3)CCC1` [Compound 2-28, {1-[(2S,5S)-9-fluoro-2,3-dihydro-2,5-methano-1,4-benzoxazepine-4(5H)-carbonyl]cyclobutyl} acetonitrile], the IC50 was 809 nM.

On to `CC1(C(=O)N2C[C@@H]3C[C@H]2c2ccccc2O3)CCCC1` [Compound 1-6, ((2S,5S)-2,3-dihydro-2,5-methanobenzo[f][1,4]oxaze-pin-4(5H)-yl)(1-methylcyclopentyl) methanone], for which the IC50 stood at 43 nM.

On to `CC(C)(C(=O)N1C[C@@H]2C[C@H]1c1cccc(Cl)c1O2)C(F)F` [Compound 2-20, 1-[(2S,5S)-9-chloro-2,3-dihydro-2,5-methano-1,4-benzoxazepin-4(5H)-yl]-3,3-difluoro-2,2-dimethylpropan-1-one], for which the IC50 was 52 nM.

One may read the IC50 as the concentration that gives 50% inhibition.
